For test [1], the system named is C. elegans. Description: Muscle function and morphology in aged C. elegans. The test is classed as in vivo. Particulars: day 15 of adulthood; verteporfin 10 uM from L4 stage; egl-44 RNAi by maternal treatment (FIG. 19A-F). The procedure:
Transgenic Caenorhabditis Elegans. C. elegans strains were cultured at 20° C. on nematode growth medium (NGM) agar plates seeded with E. coli strain OP50 unless stated otherwise. Strains used in this study were the wild-type Bristol N2 and COP2054. N2 strain was provided by the Caenorhabditis Genetics Center (University of Minnesota). For RNAi experiments, worms were exposed to egl-44 RNAi or an empty vector control plasmid using maternal treatment to ensure robust knock down of the investigated gene. Verteporfin was dissolved in DMSO, and used at a final concentration of 10 uM. Worms were exposed to verteporfin starting from L4 stage. Verteporfin or DMSO was added to agar before preparing plates. To ensure a permanent exposure to the compound, plates were changed twice a week. The COP2054 worm strain expressing human CYTOR was generated by a custom transgenic service (Knudra Transgenics, Salt Lake City, UT). Briefly, Mosi-mediated Single Copy Insertion (MosSCI) started with the construction of myo3p::CYTOR::tbb2u, where the myo3p promoter and tbb-2 3′-UTR were taken from the N2 genome, and CYTOR was synthesized with codon and intron optimization for C. elegans. […]
C. […] 45 to 60 worms per condition were manually scored for paralysis after poking. Worms that were unable to respond to any repeated stimulation were scored as dead. […]

The target in test [2] is T1, Tead1 (Mus musculus, UniProt P30051).
T1 construct: endogenous in cells; host or cells: C2C12 mouse myoblasts (ATCC CRL-1772)
T1 sequence (P30051 whole entry): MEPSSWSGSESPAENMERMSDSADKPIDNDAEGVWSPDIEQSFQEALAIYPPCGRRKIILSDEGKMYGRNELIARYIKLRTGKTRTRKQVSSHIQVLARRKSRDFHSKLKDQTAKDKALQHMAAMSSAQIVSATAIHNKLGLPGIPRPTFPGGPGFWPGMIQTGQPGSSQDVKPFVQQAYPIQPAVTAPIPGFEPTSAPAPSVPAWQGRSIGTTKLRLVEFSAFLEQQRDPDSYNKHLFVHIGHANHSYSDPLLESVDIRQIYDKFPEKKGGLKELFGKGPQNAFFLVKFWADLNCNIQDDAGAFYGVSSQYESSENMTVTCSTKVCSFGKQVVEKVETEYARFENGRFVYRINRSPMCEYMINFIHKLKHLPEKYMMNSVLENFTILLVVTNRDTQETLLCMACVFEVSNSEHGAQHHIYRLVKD
In words: C2C12 myoblast differentiation after disruption of Tead1 function (siRNA or Verteporfin). It is filed as cell-based. The procedure: Cell culture. The C2C12 mouse myoblast cell line was obtained from the American Type Culture Collection (CRL-1772TM). C2C12 and HEK293T cells (CRL-3216™, ATCCR) were cultured in growth medium consisting of Dulbecco's modified Eagle's medium (Gibco, 41966-029), 20% Fetal Bovine Serum (Gibco, 10270-106) and 100 U/mL penicillin and […] streptomycin (Gibco, 15140-122). Differentiation of Cytor/CYTOR overexpressing cells or Tead1 silenced cells were assessed in culture medium. Human skeletal muscle myoblasts (Lonza, Switzerland) were cultured in DMEM/F12 Glutamax (31331093, Gibco) supplemented with 20% FBS (Gibco, 10270-106) and 1% penicillin/streptomycin (15140-122, Gibco). Human skeletal muscle myoblasts from young, old and DMD donors were obtained from the Groupement Hospitalier Est (CBC BioTec, Centre de Ressources Biologique) and cultured in Ham F10 medium (11550043, Thermo Fisher) with 12% FBS (10270-106, Gibco) and 1% penicillin/streptomycin (Gibco, 15140-122). Muscle cell differentiation was achieved by substituting FBS with 2% horse serum (Gibco, 16050-122). For detachment Trypsin-EDTA 0.05% (25300-062, Gibco) was used for all cell lines. All cells were maintained at 37° C. and 5% CO2. Cell lines were continuously tested for mycoplasma contamination.
Cell transfection and transduction. Cell transfections were done using TransiT (Mirus) according to the manufacturer's protocol with a 3:1 ratio of transfection agent to DNA. 24 well plates were transfected with 150 ng DNA, 12 well plates with 300 ng DNA, and 6 well plates with 1 ug DNA. To transfect 25 nM GapmeR or siRNA in C2C12, LipofectamineR RNAiMAX (Thermo Scientific, 13778100) was used following manufacturer's instructions. […]
Immunocytochemistry. […] The myofusion index was calculated as the ratio of nuclei within myotubes to total nuclei. Myotube diameter was measured for 10 randomly chosen myotubes per image. Myotube area was calculated as the total area covered by myotubes. […]

Consider Verteporfin, for which, in test [1], the “function and morphology of aged C. elegans (movement, speed, activity, paralysis, death)” value is “phenocopied the beneficial effect of Cytor”. Besides, the myotube area entry in test [2] (C2C12 myoblasts (FIG. 18B)) is reported as “increase myotube area”. The myofusion entry in test [2] (C2C12 myoblasts (FIG. 18C)) was “increase”. In test [2] (C2C12 myoblasts (FIG. 18D)), the “expression of type II myosin isoforms” value is “induce the expression of type II”.

The values are drawn from patent publication US20240335505A1, “PRODUCTS AND METHODS FOR PROMOTING MYOGENESIS” (Ecole Polytechnique Federale de Lausanne (EPFL), priority 2021, published 2024).
